Source: US8791148B2, “Substituted benzimidazolone derivatives, medicaments comprising them and their use” (AbbVie Deutschland GmbH & Co. KG, priority 2006, dated 2014)

Target: T1, human vasopressin V1b receptor (Homo sapiens, UniProt P47901)
T1 construct: expressed in transfected cells; host or cells: CHO-K1 (cell line hV1b-3H2_CHO), membrane preparation
T1 sequence (P47901 1-424): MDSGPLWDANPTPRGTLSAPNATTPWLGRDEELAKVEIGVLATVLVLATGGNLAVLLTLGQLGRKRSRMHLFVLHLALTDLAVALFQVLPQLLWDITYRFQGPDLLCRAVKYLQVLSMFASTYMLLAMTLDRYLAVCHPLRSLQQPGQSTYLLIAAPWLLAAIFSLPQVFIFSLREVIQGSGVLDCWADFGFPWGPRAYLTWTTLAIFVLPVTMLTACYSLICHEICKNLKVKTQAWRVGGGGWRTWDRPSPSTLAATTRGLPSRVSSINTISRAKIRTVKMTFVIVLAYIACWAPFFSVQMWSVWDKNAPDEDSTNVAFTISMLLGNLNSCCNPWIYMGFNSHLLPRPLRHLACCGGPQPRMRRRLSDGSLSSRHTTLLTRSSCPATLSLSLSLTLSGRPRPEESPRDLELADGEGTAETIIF
Test: Vasopressin V1b receptor binding assay
Details: membranes from CHO-K1 cells with stably expressed human V1b receptors; displacement of 1.5 nM 3H-AVP; read-out: V1b receptor affinity (affinity constant Ki)
Summary of the method: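 Ki values come from nonlinear regression of triplicate scintillation counts after filtration. Test compound (2% DMSO in the mixture) and radioligand were incubated 60 min at room temperature with human V1b membranes in pH 7.4 Tris buffer with 10 mM MgCl2 and 0.1% BSA. Nonspecific binding was set with 1 uM AVP.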

COc1ccc(S(=O)(=O)n2c(=O)n(C(C(=O)N(C)CCCN(C)C)c3ccccc3)c3cc(Cl)ccc32)cc1 (stereo not shown) [Example 117, 2-[6-Chloro-3-(4-methoxybenzenesulfonyl)-2-oxo-2,3-dihydrobenzimidazol-1-yl]-N-(3-dimethylaminopropyl)-N-methyl-2-phenylacetamide]
Ki: 100 to 500 nM

CCN(CCN(C)C)C(=O)C(c1ccccc1)n1c(=O)n(S(=O)(=O)c2ccc(OC)cc2)c2ccc(Cl)cc21 (stereo not shown) [Example 118, 2-[6-Chloro-3-(4-methoxybenzenesulfonyl)-2-oxo-2,3-dihydrobenzimidazol-1-yl]-N-(2-dimethylaminoethyl)-N-ethyl-2-phenylacetamide]
Ki: < 100 nM

CCN(CC)CCN(C)C(=O)C(c1ccccc1)n1c(=O)n(S(=O)(=O)c2ccc(OC)cc2)c2ccc(Cl)cc21 (stereo not shown) [Example 119, 2-[6-Chloro-3-(4-methoxybenzenesulfonyl)-2-oxo-2,3-dihydrobenzimidazol-1-yl]-N-(2-diethylaminoethyl)-N-methyl-2-phenylacetamide]
Ki: 100 to 500 nM

COc1ccc(S(=O)(=O)n2c(=O)n(C(C(=O)N(C)CCc3ccccn3)c3ccccc3)c3cc(Cl)ccc32)cc1 (stereo not shown) [Example 120, 2-[6-Chloro-3-(4-methoxybenzenesulfonyl)-2-oxo-2,3-dihydrobenzimidazol-1-yl]-N-methyl-2-phenyl-N-(2-pyridin-2-ylethyl)acetamide]
Ki: 500 to 10000 nM

COc1ccc(S(=O)(=O)n2c(=O)n(C(C(=O)NCCCO)c3ccccc3)c3cc(Cl)ccc32)cc1 (stereo not shown) [Example 121, 2-[6-Chloro-3-(4-methoxybenzenesulfonyl)-2-oxo-2,3-dihydrobenzimidazol-1-yl]-N-(3-hydroxypropyl)-2-phenylacetamide]
Ki: 500 to 10000 nM

CCCOCCNC(=O)C(c1ccccc1)n1c(=O)n(S(=O)(=O)c2ccc(OC)cc2)c2ccc(Cl)cc21 (stereo not shown) [Example 122, 2-[6-Chloro-3-(4-methoxybenzenesulfonyl)-2-oxo-2,3-dihydrobenzimidazol-1-yl]-2-phenyl-N-(2-propoxyethyl)acetamide]
Ki: 500 to 10000 nM

COc1ccc(S(=O)(=O)n2c(=O)n(C(C(=O)NCCCCN(C)C)c3ccccc3)c3cc(Cl)ccc32)cc1 (stereo not shown) [Example 124, 2-[6-Chloro-3-(4-methoxybenzenesulfonyl)-2-oxo-2,3-dihydrobenzimidazol-1-yl]—N-(4-dimethylaminobutyl)-2-phenylacetamide]
Ki: 100 to 500 nM

COc1ccc(S(=O)(=O)n2c(=O)n(C(C(=O)NCCCN3CCCC3=O)c3ccccc3)c3cc(Cl)ccc32)cc1 (stereo not shown) [Example 125, 2-[6-Chloro-3-(4-methoxybenzenesulfonyl)-2-oxo-2,3-dihydrobenzimidazol-1-yl]-N-[3-(2-oxopyrrolidin-1-yl)propyl]-2-phenylacetamide]
Ki: 500 to 10000 nM

COc1ccc(S(=O)(=O)n2c(=O)n(C(C(=O)N3CCCN(C)CC3)c3ccccc3)c3cc(Cl)ccc32)cc1 (stereo not shown) [Example 126, 5-Chloro-1-(4-methoxybenzenesulfonyl)-3-[2-(4-methyl-[1,4]diazepan-1-yl)-2-oxo-1-phenylethyl]-1,3-dihydrobenzoimidazol-2-one]
Ki: 100 to 500 nM

COc1ccc(S(=O)(=O)n2c(=O)n(C(C(=O)N3CCN(C4CCN(C(=O)OC(C)(C)C)CC4)CC3)c3ccccc3)c3cc(Cl)ccc32)cc1 (stereo not shown) [Example 127, tert-Butyl 4-(4-{2-[6-chloro-3-(4-methoxybenzenesulfonyl)-2-oxo-2,3-dihydrobenzimidazol-1-yl]-2-phenylacetyl}piperazin-1-yl)piperidin-1-carboxylate]
Ki: 500 to 10000 nM

CCCN1CCC(N2CCN(C(=O)C(c3ccccc3)n3c(=O)n(S(=O)(=O)c4ccc(OC)cc4)c4ccc(Cl)cc43)CC2)CC1 (stereo not shown) [Example 129, 5-Chloro-1-(4-methoxybenzenesulfonyl)-3-{2-oxo-1-phenyl-2-[4-(1-propylpiperidin-4-yl)piperazin-1-yl]ethyl}-1,3-dihydrobenzimidazol-2-one]
Ki: 100 to 500 nM

COc1ccc(S(=O)(=O)n2c(=O)n(C(C(=O)NCCN3CCN(C(=O)OC(C)(C)C)CC3)c3ccccc3)c3cc(Cl)ccc32)cc1 (stereo not shown) [Example 130, tert-Butyl 4-(2-{2-[6-chloro-3-(4-methoxybenzenesulfonyl)-2-oxo-2,3-dihydrobenzimidazol-1-yl]-2-phenylacetylamino}ethyl)piperazine-1-carboxylate]
Ki: 500 to 10000 nM

COc1ccc(S(=O)(=O)n2c(=O)n(C(C(=O)NCCN3CCNCC3)c3ccccc3)c3cc(Cl)ccc32)cc1 (stereo not shown) [Example 131, 2-[6-Chloro-3-(4-methoxybenzenesulfonyl)-2-oxo-2,3-dihydrobenzimidazol-1-yl]-2-phenyl-N-(2-piperazin-1-ylethyl)acetamide]
Ki: 100 to 500 nM

CCCN1CCN(CCNC(=O)C(c2ccccc2)n2c(=O)n(S(=O)(=O)c3ccc(OC)cc3)c3ccc(Cl)cc32)CC1 (stereo not shown) [Example 133, 2-[6-Chloro-3-(4-methoxybenzenesulfonyl)-2-oxo-2,3-dihydrobenzimidazol-1-yl]-2-phenyl-N-[2-(4-propylpiperazin-1-yl)-ethyl]-acetamide]
Ki: 100 to 500 nM

COc1ccc(S(=O)(=O)n2c(=O)n(C(C(=O)NCCCN3CCNCC3)c3ccccc3)c3cc(Cl)ccc32)cc1 (stereo not shown) [Example 135, 2-[6-Chloro-3-(4-methoxybenzenesulfonyl)-2-oxo-2,3-dihydrobenzimidazol-1-yl] 2-phenyl-N-(3-piperazin-1-ylpropyl)acetamide]
Ki: 100 to 500 nM

CCCN1CCN(CCCNC(=O)C(c2ccccc2)n2c(=O)n(S(=O)(=O)c3ccc(OC)cc3)c3ccc(Cl)cc32)CC1 (stereo not shown) [Example 136, 2-[6-Chloro-3-(4-methoxybenzenesulfonyl)-2-oxo-2,3-dihydrobenzimidazol-1-yl]-2-phenyl-N-[3-(4-propylpiperazin-1-yl)propyl]-acetamide]
Ki: 100 to 500 nM

COc1ccc(S(=O)(=O)n2c(=O)n(C(C(=O)NCCCN3CCN(C)CC3)c3ccccc3)c3cc(Cl)ccc32)cc1 (stereo not shown) [Example 137, 2-[6-Chloro-3-(4-methoxybenzenesulfonyl)-2-oxo-2,3-dihydrobenzimidazol-1-yl]-N-[3-(4-methylpiperazin-1-yl)propyl]-2-phenyl-acetamide]
Ki: 100 to 500 nM

COc1ccc(S(=O)(=O)n2c(=O)n(C(C(=O)N3CCCC(N4CCN(Cc5ccccc5)CC4)C3)c3ccccc3)c3cc(Cl)ccc32)cc1 (stereo not shown) [Example 139, 3-{2-[3-(4-Benzylpiperazin-1-yl)piperidin-1-yl]-2-oxo-1-phenylethyl}-5-chloro-1-(4-methoxybenzenesulfonyl)-1,3-dihydrobenzimidazol-2-one]
Ki: < 100 nM

COc1ccc(S(=O)(=O)n2c(=O)n(C(C(=O)N3CC[C@H](N4CCN(Cc5ccccc5)CC4)C3)c3ccccc3)c3cc(Cl)ccc32)cc1 (stereo partly drawn) [Example 140, 3-{2-[(S)-3-(4-Benzylpiperazin-1-yl)pyrrolidin-1-yl]-2-oxo-1-phenylethyl}-5-chloro-1-(4-methoxybenzenesulfonyl)-1,3-dihydrobenzimidazol-2-one]
Ki: < 100 nM

COc1ccc(S(=O)(=O)n2c(=O)n(C(C(=O)N3CCC(N4CCN(Cc5ccccc5)CC4)C3)c3ccccc3)c3cc(Cl)ccc32)cc1 (stereo not shown) [Example 141, 3-{2-[3-(4-Benzylpiperazin-1-yl)-pyrrolidin-1-yl]-2-oxo-1-phenylethyl}-5-chloro-1-(4-methoxybenzenesulfonyl)-1,3-dihydrobenzimidazol-2-one]
Ki: < 100 nM

COc1ccc(S(=O)(=O)n2c(=O)n(C(C(=O)N3CC[C@@H](N4CCN(Cc5ccccc5)CC4)C3)c3ccccc3)c3cc(Cl)ccc32)cc1 (stereo partly drawn) [Example 142, 3-{2-[(R)-3-(4-Benzylpiperazin-1-yl)-pyrrolidin-1-yl]-2-oxo-1-phenylethyl}-5-chloro-1-(4-methoxybenzenesulfonyl)-1,3-dihydrobenzimidazol-2-on]
Ki: 100 to 500 nM

COc1ccc(S(=O)(=O)n2c(=O)n(C(C(=O)N3CC[C@H](N4CCN(Cc5ccccc5)CC4)C3)c3ccccc3)c3cc(C#N)ccc32)cc1 (stereo partly drawn) [Example 143, 3-{2-[(S)-3-(4-Benzylpiperazin-1-yl)-pyrrolidin-1-yl]-2-oxo-1-phenylethyl}-1-(4-methoxybenzenesulfonyl)-2-oxo-2,3-dihydro-1H-benzimidazole-5-carbonitrile]
Ki: < 100 nM

COc1ccc(S(=O)(=O)n2c(=O)n(C(C(=O)N3CC[C@@H](N4CCN(Cc5ccccc5)CC4)C3)c3ccccc3)c3cc(C#N)ccc32)cc1 (stereo partly drawn) [Example 144, 3-{2-[(R)-3-(4-Benzylpiperazin-1-yl)-pyrrolidin-1-yl]-2-oxo-1-phenylethyl}-1-(4-methoxybenzenesulfonyl)-2-oxo-2,3-dihydro-1H-benzimidazole-5-carbonitrile]
Ki: 500 to 10000 nM

COc1ccc(S(=O)(=O)n2c(=O)n(C(C(=O)N3CC[C@@H](N4CCNCC4)C3)c3ccccc3)c3cc(Cl)ccc32)cc1 (stereo partly drawn) [Example 145, 5-Chloro-1-(4-methoxybenzenesulfonyl)-3-[2-oxo-1-phenyl-2-((R)-3-piperazin-1-yl-pyrrolidin-1-yl)-ethyl]-1,3-dihydrobenzimidazol-2-one]
Ki: < 100 nM

COc1ccc(S(=O)(=O)n2c(=O)n(C(C(=O)N3CCC(N4CCNCC4)C3)c3ccccc3)c3cc(Cl)ccc32)cc1 (stereo not shown) [Example 146, 5-Chloro-1-(4-methoxybenzenesulfonyl)-3-[2-oxo-1-phenyl-2-(3-piperazin-1-ylpyrrolidin-1-yl)-ethyl]-1,3-dihydrobenzimidazol-2-one]
Ki: < 100 nM
